Data: US12180187B2, “1-phenyl-5-azinylpyrazolyl-3-oxyalkyl acids and their use for controlling unwanted plant growth” (BAYER AKTIENGESELLSCHAFT, priority 2019, dated 2024)

Tests used:
[1] = tested on: LOLRI; experiment: Pre-emergence action against LOLRI, 1280 g/ha; type: in vivo, Lolium rigidum; conditions: visual scoring after about 3 weeks vs untreated controls, 100% = plants have died, 0% = like control plants
Procedure, shortened: (§1)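 Soil-surface application after sowing, before emergence: WP or EC formulations in water with 0.5% additive, 600 litres per hectare, onto sandy loam pots. Damage rated visually in % relative to untreated plants after roughly 3 weeks in a greenhouse.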

[2] = tested on: AMARE; experiment: Pre-emergence action against AMARE, 1280 g/ha; type: in vivo, Amaranthus retroflexus; conditions: scored visually after about 3 weeks vs untreated controls (100% = plants have died)
Procedure, shortened: as §1

[3] = tested on: POLCO; experiment: Pre-emergence action at 320 g/ha against POLCO; type: in vivo, Fallopia convolvulus (Polygonum convolvulus); conditions: visual scoring after about 3 weeks vs untreated controls
Procedure, shortened: (§2)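 Weed seeds sown in pots and covered with soil; compounds formulated as WP or EC were sprayed onto the soil surface as aqueous suspension or emulsion with 0.5% additive at 600 l/ha water. Pots kept in greenhouse; activity scored visually after about 3 weeks versus untreated controls (100% = plants dead, 0% = like control).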

[4] = tested on: KCHSC; experiment: Post-emergence action against KCHSC, 1.28 kg/ha; type: in vivo, Bassia scoparia; conditions: dosage 1280 g/ha, visual rating about 3 weeks after treatment vs untreated controls (100% = plants died)
Procedure, shortened: (§3)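 Greenhouse pot test, sandy loam; weeds sprayed post-emergence at one-leaf stage (2–3 weeks after sowing) with WP or EC formulation plus 0.5% additive, 600 l/ha water. Visual rating after about 3 weeks versus untreated controls, 100% = plants dead, 0% = like control.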

[5] = tested on: SETVI; experiment: Pre-emergence action against SETVI, 1280 g/ha; type: in vivo, Setaria viridis; conditions: visual scoring after about 3 weeks vs untreated controls, 100% = plants have died, 0% = like control plants
Procedure, shortened: as §1

[6] = tested on: MATIN; experiment: Pre-emergence action against MATIN, 1280 g/ha; type: in vivo, Tripleurospermum inodorum (Matricaria inodora); conditions: scored visually after about 3 weeks vs untreated controls (100% = plants have died)
Procedure, shortened: as §1

[7] = tested on: LOLRI; experiment: Post-emergence action against LOLRI, 1.28 kg/ha; type: in vivo, Lolium rigidum; conditions: dosage 1280 g/ha, visual rating about 3 weeks after treatment vs untreated controls
Procedure, shortened: as §3

[8] = tested on: MATIN; experiment: Post-emergence action against MATIN, 1.28 kg/ha; type: in vivo, Tripleurospermum inodorum (Matricaria inodora); conditions: dosage 1280 g/ha, visual rating about 3 weeks after treatment vs untreated controls (100% = plants died)
Procedure, shortened: as §3

[9] = tested on: SETVI; experiment: Post-emergence action against SETVI, 1.28 kg/ha; type: in vivo, Setaria viridis; conditions: dosage 1280 g/ha, visual rating about 3 weeks after treatment vs untreated controls
Procedure, shortened: as §3

[10] = tested on: ALOMY; experiment: Pre-emergence action against ALOMY, 1280 g/ha; type: in vivo, Alopecurus myosuroides; conditions: visual scoring after about 3 weeks vs untreated controls, 100% = plants have died, 0% = like control plants
Procedure, shortened: as §1

[11] = tested on: AMARE; experiment: Post-emergence action against AMARE, 1.28 kg/ha; type: in vivo, Amaranthus retroflexus; conditions: dosage 1280 g/ha, visual rating about 3 weeks after treatment vs untreated controls (100% = plants died)
Procedure, shortened: as §3

[12] = tested on: ALOMY; experiment: Post-emergence action against ALOMY, 1.28 kg/ha; type: in vivo, Alopecurus myosuroides; conditions: dosage 1280 g/ha, visual rating about 3 weeks after treatment vs untreated controls
Procedure, shortened: as §3

[13] = tested on: ALOMY; experiment: Pre-emergence action at 320 g/ha against ALOMY; type: in vivo, Alopecurus myosuroides; conditions: scored visually after about 3 weeks vs untreated controls (100% = plants have died)
Procedure, shortened: as §2

[14] = tested on: ECHCG; experiment: Post-emergence action against ECHCG, 1.28 kg/ha; type: in vivo, Echinochloa crus-galli; conditions: dosage 1280 g/ha, visual rating about 3 weeks after treatment vs untreated controls
Procedure, shortened: as §3

[15] = tested on: VERPE; experiment: Post-emergence action against VERPE, 1.28 kg/ha; type: in vivo, Veronica persica; conditions: dosage 1280 g/ha, visual rating about 3 weeks after treatment vs untreated controls (100% = plants died)
Procedure, shortened: as §3

[16] = tested on: AMARE; experiment: Pre-emergence action at 320 g/ha against AMARE; type: in vivo, Amaranthus retroflexus; conditions: visual scoring after about 3 weeks vs untreated controls
Procedure, shortened: as §2

[17] = tested on: VERPE; experiment: Pre-emergence action at 320 g/ha against VERPE; type: in vivo, Veronica persica; conditions: visual scoring after about 3 weeks vs untreated controls
Procedure, shortened: as §2

[18] = tested on: POAAN; experiment: Post-emergence action against POAAN, 1.28 kg/ha; type: in vivo, Poa annua; conditions: dosage 1280 g/ha, visual rating about 3 weeks after treatment vs untreated controls
Procedure, shortened: as §3

[19] = tested on: VERPE; experiment: Pre-emergence action against VERPE, 1280 g/ha; type: in vivo, Veronica persica; conditions: scored visually after about 3 weeks vs untreated controls (100% = plants have died)
Procedure, shortened: as §1

[20] = tested on: DIGSA; experiment: Post-emergence action against DIGSA, 1.28 kg/ha; type: in vivo, Digitaria sanguinalis; conditions: dosage 1280 g/ha, visual rating about 3 weeks after treatment vs untreated controls
Procedure, shortened: as §3

[21] = tested on: SETVI; experiment: Pre-emergence action at 320 g/ha against SETVI; type: in vivo, Setaria viridis; conditions: visual scoring after about 3 weeks vs untreated controls
Procedure, shortened: as §2

[22] = tested on: POAAN; experiment: Pre-emergence action against POAAN, 1280 g/ha; type: in vivo, Poa annua; conditions: visual scoring after about 3 weeks vs untreated controls, 100% = plants have died, 0% = like control plants
Procedure, shortened: as §1

[23] = tested on: ABUTH; experiment: Pre-emergence action against ABUTH, 1280 g/ha; type: in vivo, Abutilon theophrasti; conditions: scored visually after about 3 weeks vs untreated controls (100% = plants have died)
Procedure, shortened: as §1

[24] = tested on: LOLRI; experiment: Pre-emergence action at 320 g/ha against LOLRI; type: in vivo, Lolium rigidum; conditions: visual scoring after about 3 weeks vs untreated controls
Procedure, shortened: as §2

[25] = tested on: VIOTR; experiment: Pre-emergence action at 320 g/ha against VIOTR; type: in vivo, Viola tricolor; conditions: dosage 320 g/ha
Procedure, shortened: as §2

[26] = tested on: ECHCG; experiment: Pre-emergence action against ECHCG, 1280 g/ha; type: in vivo, Echinochloa crus-galli; conditions: visual scoring after about 3 weeks vs untreated controls, 100% = plants have died, 0% = like control plants
Procedure, shortened: as §1

[27] = tested on: ECHGC; experiment: Pre-emergence action at 320 g/ha against ECHGC; type: in vivo, Echinochloa crus-galli; conditions: visual scoring after about 3 weeks vs untreated controls
Procedure, shortened: as §2

[28] = tested on: ABUTH; experiment: Post-emergence action against ABUTH, 1.28 kg/ha; type: in vivo, Abutilon theophrasti; conditions: dosage 1280 g/ha, visual rating about 3 weeks after treatment vs untreated controls (100% = plants died)
Procedure, shortened: as §3

[29] = tested on: AVEFA; experiment: Pre-emergence action at 320 g/ha against AVEFA; type: in vivo; conditions: visual scoring after about 3 weeks vs untreated controls
Procedure, shortened: as §2

[30] = tested on: DIGSA; experiment: Pre-emergence action against DIGSA, 1280 g/ha; type: in vivo, Digitaria sanguinalis; conditions: visual scoring after about 3 weeks vs untreated controls, 100% = plants have died, 0% = like control plants
Procedure, shortened: as §1

[31] = tested on: KCHSC; experiment: Pre-emergence action against KCHSC, 1280 g/ha; type: in vivo, Bassia scoparia; conditions: scored visually after about 3 weeks vs untreated controls (100% = plants have died)
Procedure, shortened: as §1

[32] = tested on: STEME; experiment: Pre-emergence action against STEME, 1280 g/ha; type: in vivo, Stellaria media; conditions: scored visually after about 3 weeks vs untreated controls (100% = plants have died)
Procedure, shortened: as §1

[33] = tested on: DIGSA; experiment: Pre-emergence action at 320 g/ha against DIGSA; type: in vivo, Digitaria sanguinalis; conditions: visual scoring after about 3 weeks vs untreated controls
Procedure, shortened: as §2

[34] = tested on: MATIN; experiment: Pre-emergence action at 320 g/ha against MATIN; type: in vivo, Tripleurospermum inodorum (Matricaria inodora); conditions: visual scoring after about 3 weeks vs untreated controls
Procedure, shortened: as §2

[35] = tested on: STEME; experiment: Post-emergence action against STEME, 1.28 kg/ha; type: in vivo, Stellaria media; conditions: dosage 1280 g/ha, visual rating about 3 weeks after treatment vs untreated controls (100% = plants died)
Procedure, shortened: as §3

[36] = tested on: DIGSA; experiment: Post-emergence action at 320 g/ha against DIGSA; type: in vivo, Digitaria sanguinalis; conditions: dosage 320 g/ha, visual rating about 3 weeks after treatment vs untreated controls (100% = plants died)
Text: (§4) Accordingly, the compounds of the invention have good herbicidal action against a broad spectrum of weed grasses and broad-leaved weeds and are therefore suitable for controlling unwanted vegetation by the post-emergence method. • b) Seeds of monocotyledonous and dicotyledonous weeds and crop plants are placed in sandy loam in plastic or organic planting pots, covered with soil and cultivated in a greenhouse under controlled growth conditions. 2 to 3 weeks after sowing, the test plants are treated at the one-leaf stage. The compounds of the invention, formulated in the form of wettable powders (WP) or as emulsion concentrates (EC), are then sprayed onto the green parts of the plants as aqueous suspension or emulsion with addition of 0.5% additive at a water application rate of 600 l/ha (converted). After the test plants have been kept in the greenhouse under optimum growth conditions for about 3 weeks, the activity of the preparations is rated visually in comparison to untreated controls. For example, 100% activity=the plants have died, 0% activity=like control plants. Tables 39 to 49 below show the effects of selected compounds of the general formula (I) according to Tables 1 and 2 on various harmful plants and at an application rate corresponding to 320 g/ha, which were obtained by the experimental procedure mentioned above.

[37] = tested on: SETVI; experiment: Post-emergence action at 320 g/ha against SETVI; type: in vivo, Setaria viridis; conditions: visual rating about 3 weeks after treatment vs untreated controls
Text: as §4

[38] = tested on: ALOMY; experiment: Post-emergence action against ALOMY, 320 g/ha; type: in vivo, Alopecurus myosuroides; conditions: dosage 320 g/ha, visual rating about 3 weeks after treatment vs untreated controls (100% = plants died)
Text: as §4

O=C(COc1nn(-c2ccccc2F)c(-c2ccc(F)nc2)c1Br)OCCCl [VII-108]
80%: Pre-emergence action against AVEFA in % [29]
100%: Pre-emergence action against LOLRI [1] | Pre-emergence action against AMARE [2] | Pre-emergence action against POLCO in % [3] | Pre-emergence action against SETVI [5] | Pre-emergence action against MATIN [6] | Post-emergence action against LOLRI [7] | Post-emergence action against MATIN [8] | Pre-emergence action against ALOMY [10] | Post-emergence action against AMARE [11] | Post-emergence action against ALOMY [12] | Pre-emergence action at 320 g/ha against ALOMY in % [13] | Post-emergence action against ECHCG [14] | Post-emergence action against VERPE [15] | Pre-emergence action against AMARE in % [16] | Pre-emergence action against VERPE in % [17] | Post-emergence action against POAAN [18] | Pre-emergence action against VERPE [19] | Post-emergence action against DIGSA [20] | Pre-emergence action against SETVI in % [21] | Pre-emergence action against POAAN [22] | Pre-emergence action against LOLRI in % [24] | Pre-emergence action against VIOTR in % [25] | Pre-emergence action against ECHCG [26] | Pre-emergence action against ECHGC in % [27] | Pre-emergence action against DIGSA [30] | Pre-emergence action against STEME [32] | Pre-emergence action against DIGSA in % [33] | Pre-emergence action against MATIN in % [34] | Post-emergence action against STEME [35]
90%: Post-emergence action against KCHSC [4] | Post-emergence action against SETVI [9] | Pre-emergence action against ABUTH [23] | Post-emergence action against ABUTH [28] | Pre-emergence action against KCHSC [31]

CC(Oc1nn(-c2ccccc2F)c(-c2ccc(F)nc2)c1I)C(=O)O (stereo not shown) [VII-118]
100%: Pre-emergence action against LOLRI [1] | Pre-emergence action against AMARE [2] | Pre-emergence action against POLCO in % [3] | Pre-emergence action against SETVI [5] | Pre-emergence action against MATIN [6] | Post-emergence action against LOLRI [7] | Pre-emergence action against ALOMY [10] | Pre-emergence action at 320 g/ha against ALOMY in % [13] | Post-emergence action against ECHCG [14] | Pre-emergence action against AMARE in % [16] | Post-emergence action against POAAN [18] | Pre-emergence action against VERPE [19] | Post-emergence action against DIGSA [20] | Pre-emergence action against POAAN [22] | Pre-emergence action against LOLRI in % [24] | Pre-emergence action against VIOTR in % [25] | Pre-emergence action against ECHCG [26] | Pre-emergence action against AVEFA in % [29] | Pre-emergence action against DIGSA [30] | Pre-emergence action against KCHSC [31] | Pre-emergence action against STEME [32] | Pre-emergence action against DIGSA in % [33] | Post-emergence action against STEME [35]
80%: Post-emergence action against SETVI in % [37]
90%: Post-emergence action against KCHSC [4] | Post-emergence action against MATIN [8] | Pre-emergence action against VERPE in % [17] | Pre-emergence action against SETVI in % [21] | Pre-emergence action against ECHGC in % [27] | Post-emergence action at 320 g/ha against DIGSA in % [36] | Post-emergence action against ALOMY [38] | Pre-emergence action against MATIN in % [34]
